From US9694005B2, “Nonsteroidal and steroidal compounds with potent androgen receptor down-regulation and anti prostate cancer activity” (University of Maryland, Baltimore, priority 2013, dated 2017) come the findings set out here.

Where two headings read alike, the source gives them in different places.

In one data set the test system is LNCaP cells. As to the kind of experiment: Cell growth inhibition (MTT colorimetric assay), LNCaP. The conditions noted are these: Homo sapiens. The format is cell-based, human. As to the method: (§1) Compounds were evaluated on their ability to inhibit LNCaP cell (androgen sensitive AR-mutant), C4-2B and CWR22Rv1 (CRPC cell lines) viability at 1 and 10 μM concentrations by the MTT assy.
(§2) The cells were seeded in 96-well plates (Corning Costar) at a density of 5×10^3 cells per well. Cells were allowed to adhere to the plate for 24 hours and then treated with various concentrations of compounds dissolved in 95% EtOH. Cells were treated for 7 days with renewal of test compound and media on day 4. On the 7th day, medium was renewed and MTT (3-(4,5-dimethylthiazol-2-yl)-2,5-diphenyl-2H-tetrazolium bromide) (Sigma, St Louis, Mo., USA) solution (0.5 mg MTT per ml of media) was added to the medium such that the ratio of MTT: medium was 1:10. The cells were incubated with MTT for 2 hours. The medium was then aspirated and DMSO was added to solubilize the violet MTT-formazan product. The absorbance at 562 nm was measured by spectrophotometry (Biotek Inc.).
In general terms: Tetrazolium dyes change colour on reduction, which living cells bring about.

In a further data set the test system is CWR22Rv1. Kind of data set: Cell growth inhibition (MTT colorimetric assay), CWR22Rv1. The data set is classed as cell-based. The following applies: Homo sapiens. As for the experimental part:
as §1, §2

Data set [1] concerns full length AR and the splice variants ARs. Kind of data set: AR down-regulation in CWR22Rv1 (FIGS. 9D, 9E, 9F). The format is cell-based, human. The following applies: 9E and 9F. As for the experimental part:
(§3) In the experiments show in FIG. 9, LNCaP and CWR22Rv1 cells were treated VN/124-1 and analogs at varying time points and effects on significant cancer cells promoting genes investigated at the protein level.

The subject of data set [2] is LNCaP cell, C4-2B and CWR22Rv1. Kind of data set: Cell growth inhibition (MTT), anticancer activity, cell line not given. The data set is classed as cell-based, human. The conditions noted are these: cell line not stated. As for the experimental part:
as §1

Another data set deals with T1, AR protein (Homo sapiens, UniProt P10275, T878A).
T1 construct: Effect of compounds on suppression of AR protein levels in LNCaP cells; endogenous in cells; host or cells: LNCaP
T1 sequence (P10275 1-920 T878A): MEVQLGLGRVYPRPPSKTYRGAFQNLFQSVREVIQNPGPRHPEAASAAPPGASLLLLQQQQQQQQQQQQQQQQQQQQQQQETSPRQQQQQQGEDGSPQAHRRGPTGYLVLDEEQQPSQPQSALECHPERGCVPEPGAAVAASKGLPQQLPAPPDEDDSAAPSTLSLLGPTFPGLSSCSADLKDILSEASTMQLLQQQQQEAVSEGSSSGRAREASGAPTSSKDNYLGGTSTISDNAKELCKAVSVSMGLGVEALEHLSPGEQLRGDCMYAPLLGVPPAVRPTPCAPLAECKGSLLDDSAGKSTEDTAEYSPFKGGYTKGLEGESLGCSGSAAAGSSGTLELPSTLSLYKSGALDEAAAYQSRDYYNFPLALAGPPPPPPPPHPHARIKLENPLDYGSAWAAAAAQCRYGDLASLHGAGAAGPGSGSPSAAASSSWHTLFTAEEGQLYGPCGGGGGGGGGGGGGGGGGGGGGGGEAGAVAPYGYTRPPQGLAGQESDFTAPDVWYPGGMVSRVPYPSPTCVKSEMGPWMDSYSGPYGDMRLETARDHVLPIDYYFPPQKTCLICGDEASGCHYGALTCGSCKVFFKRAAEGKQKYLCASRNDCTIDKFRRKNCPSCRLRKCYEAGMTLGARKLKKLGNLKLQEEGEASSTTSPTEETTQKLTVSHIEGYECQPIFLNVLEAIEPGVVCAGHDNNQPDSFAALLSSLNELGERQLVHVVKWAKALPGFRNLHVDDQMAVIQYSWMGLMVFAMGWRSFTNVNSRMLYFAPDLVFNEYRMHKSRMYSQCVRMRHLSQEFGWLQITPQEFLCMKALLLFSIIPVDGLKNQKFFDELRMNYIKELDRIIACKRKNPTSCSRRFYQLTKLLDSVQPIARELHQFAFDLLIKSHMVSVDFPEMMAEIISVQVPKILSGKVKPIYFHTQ
As to the kind of experiment: Western blotting, AR protein levels in LNCaP cells. The following applies: 15 μM of each compound for 24 h (FIG. 8). The data set is classed as cell-based. As to the method:
The ability of various compounds to down-regulate AR protein expressions was determined by western blotting.
For orientation: In western blotting, separated proteins are transferred to a membrane and probed.

A further data set deals with full length AR. Kind of data set: AR down-regulation (FIG. 9H). The data set is classed as cell-based, human.
The next data set deals with PC3 cells. As to the kind of experiment: Cell migration of PC3 cells. The format is cell-based, human. The following applies: 5 μM, after 12 hours; FIG. 10.
The subject of data set [3] is N-Cadherin, AR3, Mnk1/2, MMP-2, Ezh2, Mc1-1, eIF4E phosphorylation in CWR22Rv1 cells. Kind of data set: Effects of compounds on oncogenes at the protein level, CWR22Rv1 cells. The format is cell-based, human. The following applies: FIGS. 9B and 9G.
The test system of data set [4] is PARP cleavage, CDC25c, Mnk2, Cyclin D1, Cox-2 and N-Cadherin in LNCaP cells. Kind of data set: Effects of compounds on oncogenes at the protein level, LNCaP cells. The data set is classed as cell-based, human. The conditions noted are these: FIGS. 9A and 9C. As for the experimental part:
as §3

Setting [5] is: LNCaP, 168 h, Steroidal VNPP compounds table, treated for 7 days, read-out: GI50 Values High Passage LNCaP.
The mark [6] stands for this setting: CWR22Rv1, 168 h, Steroidal VNPP compounds table, treated for 7 days.
Setting [7] is: LNCaP, 168 h, Steroidal VNPP compounds table, treated for 7 days, read-out: GI50 Values Low Passage LNCaP.
Setting [8] is: Table 10, LNCaP high passage, read-out: GI50 Values LNCaP (High Passage).
Setting [9] is: Table 10, LNCaP low passage, concentration required to inhibit cell growth by 50%, read-out: GI50 Values LNCaP (Low Passage).
The mark [10] stands for this setting: LNCaP, 168 h, Non-steroidal VNPP compounds table, treated for 7 days, read-out: GI50 Values High Passage LNCaP.
Setting [11] is: LNCaP, 168 h, Non-steroidal VNPP compounds table, treated for 7 days, read-out: GI50 Values Low Passage LNCaP.
The mark [12] stands for this setting: CWR22Rv1, 168 h, Non-steroidal VNPP compounds table, treated for 7 days.

One may read the GI50 as the concentration at which growth is held to half of that of the control. For the molecule `C[C@]12CC[C@H](OC(=S)n3ccnc3)CC1=CCC1C2CC[C@]2(C)C(n3cnc4ccccc43)=CCC12` (stereo partly drawn) [VNPP397, 3β-(1H-imidazole-1-thiocarboxylate)-17-(1H-benzimidazol-1-yl)androsta-5,16-diene], the 50% growth inhibitory concentration (GI50) in the data set on LNCaP cells (setting [5]) was 9.57 µM; in the data set on CWR22Rv1 (setting [6]), 7.52 µM.

As for `CO[C@H]1CC[C@@]2(C)C(=CC[C@@H]3[C@@H]2CC[C@]2(C)C(n4cnc5ccccc54)=CC[C@@H]32)C1` [VNPP412, 3β-(methoxy)-17-(1H-benzimidazol-1-yl) androsta-5,16-diene], the concentration for 50% growth inhibition (GI50) is 8.71 µM with LNCaP cells (setting [5]) and 7.5 µM in the data set with CWR22Rv1 (setting [6]).

Take `C[C@]12CCC3c4ccc(C(=O)O)cc4CCC3C1CC=C2n1cnc2ccccc21` (stereo partly drawn) [VNPP341]: the “AR down-regulation against full length AR and the splice variants ARs” value in [1] was “showed activity (AR down-regulation)”. Also, the “Anticancer activity (SAR statement)” value in data set [2] is on record as “moderately acting”. For the same molecule, the “AR down-regulating action (AR protein levels, western blot)” value on AR protein is listed as “AR up-regulators”.

In the case of `C[C@]12CC[C@H](n3ccnc3)CC1=CC[C@@H]1[C@@H]2CC[C@]2(C)C(n3cnc4ccccc43)=CC[C@@H]12` [VNPP433-3β, 3β-(1H-imidazol-1-yl)-17-(1H-benzimidazol-1-yl) androsta-5,16-diene], the GI50 in the data set with LNCaP cells (setting [5]) stood at 1.64 µM; in the data set with LNCaP cells (setting [7]), 0.81 µM; with LNCaP cells (setting [8]), 1.64 µM; with LNCaP cells (setting [9]) it was 0.81 µM; with CWR22Rv1 (setting [6]) it was 2.54 µM; in the data set with CWR22Rv1 (CWR22Rv1, Table 10), 2.54 µM. For the same molecule, the “AR down-regulation against full length AR” value in the data set on full length AR is “activity (AR down-regulation)”.

For `COc1ccc(S(=O)(=O)Nc2cccc(-n3cnc4ccccc43)c2)cc1` [VNPP431, (3-benzimidazolylphenyl)[(4-methoxyphenyl)sulfonyl]amine], the 50% growth inhibitory concentration (GI50) in the data set with LNCaP cells (setting [10]) was 3.14 µM; with LNCaP cells (setting [11]), 5.23 µM; in the data set on CWR22Rv1 (setting [12]), 4.78 µM.

Usually melting point stands for the temperature, or range, at which the solid turns liquid. Regarding `c1cc(-c2ccc(Cn3cnc4ccccc43)cc2)cc(-c2nn[nH]n2)c1` [VNPP361, 5-{3-[4-(benzimidazolylmethyl)phenyl]phenyl}-1H-1,2,3,4-tetraazole], the melting point was in the range of 231 to 233 °C.

Regarding `CNC(=O)c1ccc(N2C(=S)N(c3ccc(C#N)c(C(F)(F)F)c3)C(=O)C2(C)C)cc1F` [MDV3100, reference compound], the GI50 in the data set on LNCaP cells (setting [5]) and in the data set on LNCaP cells (setting [9]) was 4.85 µM in each case.

In the case of `C[C@]12CCC3CC31[C@H](n1ccnc1)CC1C3CC=C(n4cnc5ccccc54)C3CCC12` (stereo partly drawn) [VNPP433-6β, 6β-imidazol-1yl-3,5-cycloandrostan-17-benzimidazole-1-yl-16-ene], the 50% growth inhibitory concentration (GI50) in the data set on LNCaP cells (setting [5]) stood at 6.61 µM; in the data set on CWR22Rv1 (setting [6]) it was 12.3 µM. Moreover, in the data set on full length AR, the “AR down-regulation against full length AR” value is given as “activity (AR down-regulation)”.

As to `C[C@]12CC[C@H](OCc3ccncc3)CC1=CC[C@@H]1[C@@H]2CC[C@]2(C)C(n3cnc4ccccc43)=CC[C@@H]12` [VNPP414, 3β-(pyridine-4-ylmethoxy)-17-(1H-benzimidazol-1-yl) androsta-5,16-diene], the GI50 in the data set with LNCaP cells (setting [5]) was 2.45 µM; with LNCaP cells (setting [7]), 0.87 µM; with LNCaP cells (setting [8]), 2.45 µM; in the data set on LNCaP cells (setting [9]), 0.87 µM; in the data set on CWR22Rv1 (setting [6]), 3.24 µM; in the data set on CWR22Rv1 (CWR22Rv1, Table 10), 3.24 µM. In addition, in the data set on PC3 cells, the “Migration of PC3 cells” value is on record as “profoundly inhibit migration”. The “Phosphorylation of eIF4E” value in data set [3] is “downregulated”. In addition, in data set [3], the “Protein expression of N-Cadherin, AR3, Mnk1/2, MMP-2, Ezh2, Mc1-1” value was “decreased”. Further, in [4], the “Expression of CDC25c, Mnk2, Cyclin D1, Cox-2 and N-Cadherin” value was “reduced”. Also, in data set [4], the “PARP cleavage (signature of apoptosis)” value is recorded as “significant increase”.

Take `C[C@]12CC[C@@H](n3ccnc3)CC1=CC[C@@H]1[C@@H]2CC[C@]2(C)C(n3cnc4ccccc43)=CC[C@@H]12` [VNPP433-3α, 3α-(1H-imidazol-1-yl)-17-(1H-benzimidazol-1-yl) androsta-5,16-diene]: the 50% growth inhibitory concentration (GI50) with LNCaP cells (setting [5]) turned out to be 8.91 µM; in the data set with LNCaP cells (setting [7]) it was 4.04 µM; with CWR22Rv1 (setting [6]), 9.88 µM. In addition, the “AR down-regulation against full length AR” value in the data set on full length AR is given as “activity (AR down-regulation)”.

`Oc1ccc2cc(-c3cccc(-n4cnc5ccccc54)c3)ccc2c1` [VNPP372/2, 6-(3-benzimidazolylphenyl)naphthalen-2-ol]: the 50% growth inhibitory concentration (GI50) was 6.09 µM with LNCaP cells (setting [10]), 5.77 µM with LNCaP cells (setting [11]) and 8.91 µM in the data set with CWR22Rv1 (setting [12]).

Regarding `C[C@]12CCC3c4ccc(O)cc4CCC3C1CC=C2n1cnc2ccccc21` (stereo partly drawn) [VNPP338], the “AR down-regulation against full length AR and the splice variants ARs” value in data set [1] is given as “showed activity (AR down-regulation)”. For the same molecule, the “Anticancer activity (SAR statement)” value in [2] is on record as “equal potent anticancer activity to compound VN/124-1”. Further, the “AR down-regulating action (AR protein levels, western blot)” value on AR protein is recorded as “potent AR down-regulating agents”.

As for `N#Cc1cccc(-c2ccc(Cn3cnc4ccccc43)cc2)c1` [VNPP358, 3-[4-(benzimidazolylmethyl)phenyl]benzenecarbonitrile], the GI50 turned out to be 3.5 µM with LNCaP cells (setting [10]), 3.71 µM with LNCaP cells (setting [11]) and 10.5 µM in the data set with CWR22Rv1 (setting [12]).

In the case of `COc1cccc(-c2ccc(Cn3cnc4ccccc43)cc2)c1` [VNPP347B, 3-[4-(benzimidazolylmethyl)phenyl]-1-methoxybenzene], the GI50 with LNCaP cells (setting [10]) worked out at 4.41 µM; in the data set with CWR22Rv1 (setting [12]) it was 14 µM.

For `C[C@]12CC[C@H](n3cnc4ccccc43)CC1=CC[C@@H]1[C@@H]2CC[C@]2(C)C(n3cnc4ccccc43)=CC[C@@H]12` [VNPP433 (A2), 3β-(1H-benzimidazol-1-yl)-17-(1H-benzimidazol-1-yl)androsta-5,16-diene], the “AR down-regulation against full length AR” value with full length AR is “activity (AR down-regulation)”.

With `c1cc(-c2ccc(CCn3cnc4ccccc43)cc2)cc(-c2nn[nH]n2)c1` [VNPP364, 5-{3-[4-(benzimidazolylethyl)phenyl]phenyl}-1H-1,2,3,4-tetraazole], the melting point fell in the range of 223 to 225 °C.
